Measured values from patent publication US7915276B2, “Berberrubine derivatives having antifungal activities” (priority 2006, dated 2011).

What was measured:
human pathogenic fungi = experiment: Antifungal activity against human pathogenic fungi (summary statements); assay type: cell-based
Excerpt: Candida albicans ATCC 10231, Candida lusitaniae ATCC 42720, Candida krusei ATCC 6258, Candida tropicalis ATCC 13803, Candida glabrata ATCC 48435, Candida parapsilosis ATCC 34136, Cryptococcus neoformans ATCC 36556, Aspergillus fumigatus ATCC 16424, Aspergillus flavus ATCC 64025, Aspergillus terreus ATCC 46941 and Mucor ramosissimus ATCC 90286 strains for the MIC (minimum inhibitory concentration) measurement were obtained from ATCC (American Type Culture Collection) in the U.S. The Candida albicans A207(clinical isolate) strain was used by isolating it from the patients.
The determination of MIC was performed according to the NCCLS (National Committee for Clinical Laboratory Standard) method. Each test sample solution was diluted two-fold and inoculated with a fungal suspension to reach a final inoculum size of 5×10^2 to 2.5×10^3 cell/mL. The Cryptococcus neoformans strain was cultured in the RPMI 1640 medium for 72 hours. Other strains were cultured for 48 hours.

[1] = target: T1, chitin synthase 2 of Saccharomyces cerevisiae ECY38-38A(pAS6) (Saccharomyces cerevisiae, UniProt P14180); experiment: In vitro enzyme assay for chitin synthase 2 of Saccharomyces cerevisiae (enzyme 2); assay type: biochemical; conditions: relative to polyoxin D (50% inhibitory activity = value 5)
T1 construct: made in house; host or cells: Saccharomyces cerevisiae ECY38-38A (chs1-23 chs2::LEU2 cal1/csd2) carrying plasmid pAS6, grown in galactose medium; 130,000 x g membrane pellet
How it was run: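 Crude membrane chitin synthase 2 came from S. cerevisiae ECY38-38A(pAS6), expressing only CHS2, and was trypsin-activated (15 min, 30 °C) then trypsin-inhibited. The reaction ran in 32 mM Tris-HCl pH 7.5, 2 mM cobalt acetate, 1.1 mM UDP-[14C]-GlcNAc, 90 min at 30 °C. TCA-precipitated product was counted by scintillation; scores 1–8 reflect concentration relative to polyoxin D's 50% inhibition (score 5).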

chitin synthases = experiment: Inhibitory activity against the chitin synthases (summary statements); assay type: biochemical
Excerpt: The inhibitory activities against the chitin synthase 1 of Candida albicans chs2 Δ chs 3 Δ (abbreviated as ‘enzyme 1’) and the chitin synthase 2 of Saccharomyces cerevisiae ECY38-38A(pAS6)(abbreviated as ‘enzyme 2’) was examined for compound Nos. 1 to 70 compound and polyoxin D, a positive control compound.
The inhibitory activity against the chitin synthase 1 prepared from Candida albicans and the chitin synthase 2 prepared from Saccharomyces cerevisiae were examined as follows. A reaction mixture containing 32 mM Tris-HCl (pH 7.5), 2 mM cobalt acetate, 1.1 mM UDP-[U-^14C]-N-acetyl-d-glucosamine (GlcNAc) (400,000 cpm/μmol), 2 μL of trypsin (0.75 mg/mL), 20 μL of each crude enzyme and 14 μL of each test sample was kept at 30° C. for 15 minutes to activate the enzyme. Then, 2 μL of trypsin inhibitor (1.5 mg/mL) was added and the mixture was kept in an ice bath for 10 minutes to deactivate trypsin. 2 μL of 0.8 M N-acetyl-d-glucosamine was added to a total volume of 50 μL and reaction was performed at 30° C. for 90 minutes. The reaction was stopped using 1 mL of 10% TCA solution and the reaction solution was filtered with a GF/C filter and dried at room temperature. After adding 3 mL of a scintillation cocktail solution, the amount of isotopes was measured using a liquid scintillation counter. Percentage inhibition against each enzyme was calculated by the following Equation 1.

[2] = target: T2, chitin synthase 1 of Candida albicans chs2 Δ chs 3 Δ (Candida albicans, UniProt P23316); experiment: In vitro enzyme assay for chitin synthase 1 of Candida albicans (enzyme 1); assay type: biochemical; conditions: relative to polyoxin D (50% inhibitory activity = value 5)
T2 construct: Crude enzyme was prepared using the Candida albicans chs2 Δ chs 3 Δ mutant; endogenous in cells; host or cells: Candida albicans chs2Δ/chs2Δ chs3Δ/chs3Δ mutant; 130,000 x g membrane pellet
How it was run: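 Crude membrane enzyme from the C. albicans chs2Δ chs3Δ strain was trypsin-activated for 15 min at 30 °C. Reaction: 32 mM Tris-HCl pH 7.5, 2 mM cobalt acetate, 1.1 mM UDP-[14C]GlcNAc, 90 min at 30 °C; TCA-insoluble radioactivity counted. Scored 1–8 by relative polyoxin D concentration (5 = equal).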

[3] = system: Candida parapsilosis ATCC 34136; experiment: In vitro antifungal activity (MIC), NCCLS method; assay type: cell-based; conditions: Candida parapsilosis ATCC 34136; 48 hours
How it was run: (§1)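 According to NCCLS guidance, each compound is diluted two-fold and challenged with a fungal inoculum of 5×10^2 to 2.5×10^3 cell/mL (final). Incubation lasts 48 hours.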

[4] = system: Candida glabrata ATCC 48435; experiment: In vitro antifungal activity (MIC), NCCLS method; assay type: cell-based; conditions: Candida glabrata ATCC 48435; 48 hours
How it was run: as §1

[5] = system: Aspergillus terreus ATCC 46941; experiment: In vitro antifungal activity (MIC), NCCLS method; assay type: cell-based; conditions: 48 hours
How it was run: (§2)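 Test samples were serially diluted two-fold, then inoculated with fungus to a final cell density of 5×10^2 to 2.5×10^3 cell/mL, following the NCCLS method. Plates were cultured for 48 hours and the minimum inhibitory concentration recorded.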

[6] = system: Candida lusitaniae ATCC 42720; experiment: In vitro antifungal activity (MIC), NCCLS method; assay type: cell-based; conditions: 48 hours
How it was run: as §1

[7] = system: Candida albicans A207 (clinical isolate); experiment: In vitro antifungal activity (MIC), NCCLS method; assay type: cell-based; conditions: 48 hours
How it was run: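 Two-fold dilutions, final inoculum 5×10^2–2.5×10^3 cell/mL, NCCLS protocol; 48 h culture for these strains. MIC = minimum inhibitory concentration.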

[8] = system: Aspergillus flavus ATCC 64025; experiment: In vitro antifungal activity (MIC), NCCLS method; assay type: cell-based; conditions: 48 hours
How it was run: as §2

[9] = system: Cryptococcus neoformans ATCC 36556; experiment: In vitro antifungal activity (MIC), NCCLS method; assay type: cell-based; conditions: RPMI 1640 medium, 72 hours
How it was run: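 Broth microdilution per NCCLS: two-fold serial dilutions of test compound inoculated with fungal suspension at a final 5×10^2 to 2.5×10^3 cell/mL. Strains other than Cryptococcus neoformans were incubated 48 hours before MIC reading.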

[10] = system: Candida albicans ATCC 10231; experiment: In vitro antifungal activity (MIC), NCCLS method; assay type: cell-based; conditions: 48 hours
How it was run: as §1

[11] = system: Aspergillus fumigatus ATCC 16424; experiment: In vitro antifungal activity (MIC), NCCLS method; assay type: cell-based; conditions: 48 hours
How it was run: as §2

[12] = system: Candida tropicalis ATCC 13803; experiment: In vitro antifungal activity (MIC), NCCLS method; assay type: cell-based; conditions: 48 hours
How it was run: as §1

[13] = system: Mucor ramosissimus ATCC 90286; experiment: In vitro antifungal activity (MIC), NCCLS method; assay type: cell-based; conditions: 48 hours
How it was run: as §1

Candida krusei ATCC 6258 = experiment: In vitro antifungal activity (MIC), NCCLS method; assay type: cell-based; conditions: 48 hours
How it was run: as §1

T1 sequence (P14180 whole entry): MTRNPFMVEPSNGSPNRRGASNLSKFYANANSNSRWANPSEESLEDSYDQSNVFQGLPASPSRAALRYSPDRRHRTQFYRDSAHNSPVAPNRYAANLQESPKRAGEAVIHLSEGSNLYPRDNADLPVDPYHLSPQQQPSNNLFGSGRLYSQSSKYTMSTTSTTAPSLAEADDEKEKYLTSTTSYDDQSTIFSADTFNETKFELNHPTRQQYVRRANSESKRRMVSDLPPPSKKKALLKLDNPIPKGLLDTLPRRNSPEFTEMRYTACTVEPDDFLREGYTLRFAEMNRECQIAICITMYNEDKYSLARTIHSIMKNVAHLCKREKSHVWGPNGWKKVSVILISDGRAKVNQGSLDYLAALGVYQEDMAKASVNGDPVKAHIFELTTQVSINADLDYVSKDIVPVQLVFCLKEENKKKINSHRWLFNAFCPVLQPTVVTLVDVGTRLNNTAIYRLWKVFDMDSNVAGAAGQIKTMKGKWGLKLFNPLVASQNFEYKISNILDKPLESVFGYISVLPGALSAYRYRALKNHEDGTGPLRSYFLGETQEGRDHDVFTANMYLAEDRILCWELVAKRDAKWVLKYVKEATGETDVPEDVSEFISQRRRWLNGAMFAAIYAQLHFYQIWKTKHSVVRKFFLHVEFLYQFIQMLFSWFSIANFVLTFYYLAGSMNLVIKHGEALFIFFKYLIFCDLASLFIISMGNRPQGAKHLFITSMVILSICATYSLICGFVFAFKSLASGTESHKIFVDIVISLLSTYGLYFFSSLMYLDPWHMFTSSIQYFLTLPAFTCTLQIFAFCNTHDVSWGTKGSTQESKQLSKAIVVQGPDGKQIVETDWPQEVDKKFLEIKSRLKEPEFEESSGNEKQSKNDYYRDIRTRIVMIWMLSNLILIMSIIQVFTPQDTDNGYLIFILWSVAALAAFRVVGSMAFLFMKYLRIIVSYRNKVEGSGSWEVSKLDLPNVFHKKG
T2 sequence (P23316 whole entry, stated change not applied): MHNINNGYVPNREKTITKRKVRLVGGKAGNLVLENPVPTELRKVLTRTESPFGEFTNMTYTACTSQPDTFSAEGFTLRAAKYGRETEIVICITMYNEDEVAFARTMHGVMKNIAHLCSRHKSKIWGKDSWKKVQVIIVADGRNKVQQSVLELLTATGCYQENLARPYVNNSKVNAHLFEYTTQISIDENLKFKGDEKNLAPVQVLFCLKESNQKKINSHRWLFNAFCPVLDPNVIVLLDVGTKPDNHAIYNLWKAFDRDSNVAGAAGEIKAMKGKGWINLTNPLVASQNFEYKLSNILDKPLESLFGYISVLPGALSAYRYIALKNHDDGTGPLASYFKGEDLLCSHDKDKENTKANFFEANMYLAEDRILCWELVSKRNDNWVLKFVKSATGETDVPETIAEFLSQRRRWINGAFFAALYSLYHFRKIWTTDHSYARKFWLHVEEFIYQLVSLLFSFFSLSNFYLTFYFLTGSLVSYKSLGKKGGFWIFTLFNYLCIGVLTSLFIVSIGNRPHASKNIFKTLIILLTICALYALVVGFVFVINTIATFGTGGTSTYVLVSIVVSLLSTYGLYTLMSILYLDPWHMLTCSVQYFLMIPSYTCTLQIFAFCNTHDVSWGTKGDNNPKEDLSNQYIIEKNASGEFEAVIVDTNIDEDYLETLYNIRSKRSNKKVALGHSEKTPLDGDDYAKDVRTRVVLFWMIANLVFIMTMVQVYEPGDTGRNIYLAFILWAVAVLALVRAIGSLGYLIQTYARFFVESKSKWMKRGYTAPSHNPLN

Compound | MIC (human pathogenic fungi; berberrubine, the starting material, strains not specified) [µg/mL] | Relative activity Enzyme 2 [1] | inhibitory activities against the chitin synthases (in words) (chitin synthases) | Relative activity Enzyme 1 [2] | MIC (minimum inhibitory concentration) [3] [µg/mL] | MIC (minimum inhibitory concentration) [4] [µg/mL] | MIC (minimum inhibitory concentration) [5] [µg/mL] | MIC (minimum inhibitory concentration) [6] [µg/mL] | MIC (minimum inhibitory concentration) [7] [µg/mL] | MIC (minimum inhibitory concentration) [8] [µg/mL] | MIC (minimum inhibitory concentration) [9] [µg/mL] | MIC (minimum inhibitory concentration) [10] [µg/mL] | MIC (minimum inhibitory concentration) [11] [µg/mL] | MIC (minimum inhibitory concentration) [12] [µg/mL] | MIC (minimum inhibitory concentration) [13] [µg/mL] | MIC (minimum inhibitory concentration) (Candida krusei ATCC 6258) [µg/mL] | antifungal activities compared with amphotericin B (in words) (human pathogenic fungi)
COc1ccc2cc3[n+](cc2c1O)CCc1cc2c(cc1-3)OCO2 [berberrubine] | 256 to 512 | – | – | – | – | – | – | – | – | – | – | – | – | – | – | – | –
13-(4-Isopropylbenzyl)-9-O-butylberberrubine iodide [Compound No. 18] | – | 7 (compounds having the inhibitory activity at ½, ¼ and ⅛ lower concentrations than that of polyoxin D were given the values of 6, 7 and 8, respectively) | exceptionally superior inhibitory activities | 4 (Compounds having the inhibitory activity at 2-fold, 4-fold, 8-fold and 16-fold higher concentrations than that of polyoxin D were given the values of 4, 3, 2 and 1, respectively) | 4 | 4 | 8 | 1 | 0.5 | 8 | 1 | 0.5 | 2 | 0.25 | 4 | 1 | comparable to that of amphotericin B
13-(4-Isopropylbenzyl)-9-O-propylberberrubine iodide [Compound No. 17] | – | 7 (compounds having the inhibitory activity at ½, ¼ and ⅛ lower concentrations than that of polyoxin D were given the values of 6, 7 and 8, respectively) | exceptionally superior inhibitory activities | 4 (Compounds having the inhibitory activity at 2-fold, 4-fold, 8-fold and 16-fold higher concentrations than that of polyoxin D were given the values of 4, 3, 2 and 1, respectively) | 4 | 4 | 8 | 2 | 1 | 8 | 2 | 1 | 4 | 0.5 | 4 | 2 | comparable to that of amphotericin B
13-(4-tert-Butylbenzyl)-9-O-propylberberrubine iodide [Compound No. 7] | – | 7 (compounds having the inhibitory activity at ½, ¼ and ⅛ lower concentrations than that of polyoxin D were given the values of 6, 7 and 8, respectively) | exceptionally superior inhibitory activities | 4 (Compounds having the inhibitory activity at 2-fold, 4-fold, 8-fold and 16-fold higher concentrations than that of polyoxin D were given the values of 4, 3, 2 and 1, respectively) | 4 | 4 | 8 | 2 | 1 | 8 | 2 | 1 | 4 | 0.5 | 4 | 2 | comparable to that of amphotericin B
13-(4-tert-Butylbenzyl)-9-O-butylberberrubine chloride [Compound No. 40] | – | 7 (compounds having the inhibitory activity at ½, ¼ and ⅛ lower concentrations than that of polyoxin D were given the values of 6, 7 and 8, respectively) | exceptionally superior inhibitory activities | 4 (Compounds having the inhibitory activity at 2-fold, 4-fold, 8-fold and 16-fold higher concentrations than that of polyoxin D were given the values of 4, 3, 2 and 1, respectively) | 4 | 4 | 8 | 0.5 | 0.5 | 8 | 1 | 0.5 | 2 | 0.25 | 4 | 1 | comparable to that of amphotericin B
13-(4-tert-Butylbenzyl)-9-O-propylberberrubine chloride [Compound No. 39] | – | 7 (compounds having the inhibitory activity at ½, ¼ and ⅛ lower concentrations than that of polyoxin D were given the values of 6, 7 and 8, respectively) | exceptionally superior inhibitory activities | 4 (Compounds having the inhibitory activity at 2-fold, 4-fold, 8-fold and 16-fold higher concentrations than that of polyoxin D were given the values of 4, 3, 2 and 1, respectively) | 4 | 4 | 8 | 1 | 1 | 8 | 2 | 1 | 4 | 0.5 | 4 | 2 | comparable to that of amphotericin B
